This assay is described as follows: oxygen radical absorbance capacity assay (ORAC). The following applies: individual antioxidant compounds. The format is biochemical.
Description: Synergism was determined by comparing the antioxidant capacities of combinations of components measured by oxygen radical absorbance capacity assay (ORAC) with expected or additive values of the individual compounds. As reflected in the Examples below, the expected ORAC is the combined (additive) antioxidant capacity of each individual antioxidant compound in the association, measured individually and assuming that each is functioning independently. The expected ORAC value of a certain association can be calculated by using the following equation: ORAC (total)=sum of ORAC (compound n, individually) multiplied by the Percentage (compound n, of use in a cosmetic composition), n=1, 2, 3 . . . .
The ORAC assay measures the oxidative degradation of the fluorescent probe (fluorescein) after being mixed with free radical generators such as azo-initiator compounds (2,2′-Azobis(2-amidinopropane)dihydrochloride, AAPH). Azo-initiators are considered to produce the peroxyl radical by heating, which damages the fluorescent molecule, resulting in the loss of fluorescence. Antioxidants are considered to protect the fluorescent molecule from the oxidative degeneration. By quantifying the decay of fluorescence using a fluorometer, the degree of protection is determined comparing with a standard control antioxidant Trolox. The result is expressed in μMol equivalent of Trolox.
`OC[C@H]1O[C@@H](Oc2cc(O)cc(/C=C/c3ccc(O)cc3)c2)[C@H](O)[C@@H](O)[C@@H]1O` [Polydatin] returned an ORAC of 20159 μmolTolox/g.

`Cc1c(C)c2c(c(C)c1O)CCC(C)(C(=O)O)O2` (stereo not drawn) [Trolox (VitE), Trolox] returned an ORAC of 1000 μmolTolox/g.

The compound `O=C(O)[C@H]1O[C@@H](Oc2cc3oc(-c4ccccc4)cc(=O)c3c(O)c2O)[C@H](O)[C@@H](O)[C@@H]1O` [baicalin] showed an ORAC of 4759 μmolTolox/g.

(Values after US10828515B2, “Compositions containing phenolic compounds having synergistic antioxidant benefits” (L'OREAL, priority 2016, dated 2020).)
